According to patent US7223759B2, “Antibacterial 3,5-diaminopiperidine-substituted aromatic and heteroaromatic compounds” (Anadys Pharmaceuticals, Inc., priority 2003, dated 2007):

Tested on: Escherichia coli (ATCC25922) or Staphylococcus aureus (ATCC25923)
Assay: Antibacterial MIC, microdilution method in Mueller-Hinton medium
Type: cell-based
Settings: Escherichia coli, 18 h, MIC in E. coli or S. aureus; two-fold serial dilutions 64 to 0.5 μg/ml in duplicate; 18 hours of incubation at 35° C.; read-out: Potency (MIC)
Method: The antibacterial activity of the Formula I compounds was evaluated against standard bacterial strains by determining the minimal inhibitory concentration (MIC) to block growth. Each drug was assayed by the microdilution method in Mueller-Hinton medium, as recommended by the National Committee for Clinical Laboratory Standards. Approved Standard M7-A5: Methods for Dilution Antimicrobial Susceptibility Tests for Bacteria That Grow Aerobically 5th Ed. (National Committee for Clinical Laboratory Standards, Wayne, Pa., 2000). The tested bacterial strains included Escherichia coli (American Type Collection ATCC25922), Staphylococcus aureus (ATCC25923), and Pseudomonas aeruginosa (ATCC27853). Two-fold serial dilutions of each compound ranging from 64 to 0.5 μg/ml were tested in duplicate. The MIC was determined as the lowest concentration of each compound that prevented bacterial growth after 18 hours of incubation at 35° C. […] The mass of each compound in the Table was confirmed by LC-MS.

Structure (SMILES)	MIC
Cl.Nc1nc(N2C[C@H](N)C[C@H](N)C2)nc(N2C[C@H](N)C[C@H](N)C2)n1 [4,6-Bis-((3R,5S)-3,5-diamino-piperidin-1-yl)-[1,3,5]triazin-2-ylamine]	> 64 µg/mL
Cl.O=C(Nc1ccc(Nc2nc(N3CCCCC3)nc(N3CCCC3)n2)cc1O)c1ccc(Cl)cc1 [4-Chloro-N-{4-[4-((3R,5S)-3,5-diamino-piperidin-1-yl)-6-((3R,4S)-3,4-diamino-pyrrolidsin-1-yl)-[1,3,5]triazin-2-ylamino]-2-hydroxy-phenyl}-benzamide]	< 64 µg/mL

Same assay, conditions: Escherichia coli, 18 h, read-out: Potency (MIC)

Structure (SMILES)	MIC
N[C@@H]1C[C@H](N)CN(c2nc(Nc3ccc4c(c3)-c3ccccc3C4=O)nc(N3CCC[C@@H](O)C3)n2)C1 [3-[4-((3S,5R)-3,5-Diamino-piperidin-1-yl)-6-((R)-3-hydroxy-piperidin-1-yl)-[1,3,5]triazin-2-ylamino]-fluoren-9-one]	< 64 µg/mL
N[C@@H]1C[C@H](N)CN(c2nc(Nc3ccc4c(c3)-c3ccccc3C4=O)nc(N3C[C@@H](N)C[C@@H](O)C3)n2)C1 [3-[4-((3S,5R)-3-Amino-5-hydroxy-piperidin-1-yl)-6-((3S,5R)-3,5-diamino-piperidin-1-yl)-[1,3,5]triazin-2-ylamino]-fluoren-9-one]	< 16 µg/mL
NCCN(CCN)c1nc(Nc2ccc3c(c2)-c2ccccc2C3=O)nc(N2C[C@H](N)C[C@H](N)C2)n1 [3-[4-[Bis(2-amino-ethyl)-amino]-6-((3R,5S)-3,5-diamino-piperidin-1-yl)-[1,3,5]triazin-2-ylamino]-fluoren-9-one]	> 64 µg/mL
NC[C@H]1[C@@H](O)CCN1c1nc(Nc2ccc(C(=O)CC(=O)Nc3ccccc3Cl)cc2)nc(N2C[C@H](N)C[C@H](N)C2)n1 [3-{4-[4-((2S,3S)-2-Aminomethyl-3-hydroxy-pyrrolidin-1-yl)-6-((3R,5S)-3,5-diamino-piperidin-1-yl)-[1,3,5]triazin-2-ylamino]-phenyl}-N-(2-chloro-phenyl)-3-oxo-propionamide]	< 64 µg/mL
NC[C@@H]1C[C@@H](O)CN1c1nc(Nc2ccc(C(=O)CC(=O)Nc3ccc4c(c3)OC(F)(F)O4)cc2)nc(N2C[C@H](N)C[C@H](N)C2)n1 [3-{4-[4-((2S,4R)-2-Aminomethyl-4-hydroxy-pyrrolidin-1-yl)-6-((3R,5S)-3,5-diamino-piperidin-1-yl)-[1,3,5]triazin-2-ylamino]-phenyl}-N-(2,2-difluoro-benzo[1,3]dioxol-5-yl)-3-oxo-propionamide]	< 16 µg/mL
NC[C@@H]1C[C@@H](O)CN1c1nc(Nc2ccc(C(=O)CC(=O)Nc3ccccc3Cl)cc2)nc(N2C[C@H](N)C[C@H](N)C2)n1 [3-{4-[4-((2S,4R)-2-Aminomethyl-4-hydroxy-pyrrolidin-1-yl)-6-((3R,5S)-3,5-diamino-piperidin-1-yl)-[1,3,5]triazin-2-ylamino]-phenyl}-N-(2-chloro-phenyl)-3-oxo-propionamide]	< 64 µg/mL
NC[C@@H]1C[C@@H](O)CN1c1nc(Nc2ccc(C(=O)CC(=O)Nc3ccc(F)c(F)c3)cc2)nc(N2C[C@H](N)C[C@H](N)C2)n1 [3-{4-[4-((2S,4R)-2-Aminomethyl-4-hydroxy-pyrrolidin-1-yl)-6-((3R,5S)-3,5-diamino-piperidin-1-yl)-[1,3,5]triazin-2-ylamino]-phenyl}-N-(3,4-difluoro-phenyl)-3-oxo-propionamide]	< 64 µg/mL
NC[C@@H]1C[C@H](N)CN1c1nc(Nc2ccc(C(=O)CC(=O)Nc3ccc(SC(F)(F)F)cc3)cc2)nc(N2C[C@H](N)C[C@H](N)C2)n1 [3-{4-[4-((2S,4S)-4-Amino-2-aminomethyl-pyrrolidin-1-yl)-6-((3R,5S)-3,5-diamino-piperidin-1-yl)-[1,3,5]triazin-2-ylamino]-phenyl}-3-oxo-N-(4-trifluoromethylsulfanyl-phenyl)-propionamide]	< 16 µg/mL
NC[C@@H]1C[C@H](N)CN1c1nc(Nc2ccc(C(=O)CC(=O)Nc3ccccc3Cl)cc2)nc(N2C[C@H](N)C[C@H](N)C2)n1 [3-{4-[4-((2S,4S)-4-Amino-2-aminomethyl-pyrrolidin-1-yl)-6-((3R,5S)-3,5-diamino-piperidin-1-yl)-[1,3,5]triazine-2-ylamino]-phenyl}-N-(2-chloro-phenyl)-3-oxo-propionamide]	< 64 µg/mL
N[C@@H]1C[C@H](N)CN(c2nc(Nc3ccc(C(=O)CC(=O)Nc4ccc(SC(F)(F)F)cc4)cc3)nc(N3C[C@@H](N)C[C@H]3CO)n2)C1 [3-{4-[4-((2S,4S)-4-Amino-2-hydroxymethyl-pyrrolidin-1-yl)-6-((3R,5S)-3,5-diamino-piperidin-1-yl)-[1,3,5]triazin-2-ylamino]-phenyl}-3-oxo-N-(4-trifluoromethylsulfanyl-phenyl)-propionamide]	< 16 µg/mL
N[C@@H]1C[C@H](N)CN(c2nc(Nc3ccc(C(=O)CC(=O)Nc4ccc5c(c4)OC(F)(F)O5)cc3)nc(N3C[C@@H](N)C[C@H]3CO)n2)C1 [3-{4-[4-((2S,4S)-4-Amino-2-hydroxymethyl-pyrrolidin-1-yl)-6-((3R,5S)-3,5-diamino-piperidin-1-yl)-[1,3,5]triazin-2-ylamino]-phenyl}-N-(2,2-difluoro-benzo[1,3]dioxol-5-yl)-3-oxo-propionamide]	< 16 µg/mL
N[C@@H]1C[C@H](N)CN(c2nc(Nc3ccc(C(=O)CC(=O)Nc4ccccc4Cl)cc3)nc(N3C[C@@H](N)C[C@H]3CO)n2)C1 [3-{4-[4-((2S,4S)-4-Amino-2-hydroxymethyl-pyrrolidin-1-yl)-6-((3R,5S)-3,5-diamino-piperidin-1-yl)-[1,3,5]triazin-2-ylamino]-phenyl}-N-(2-chloro-phenyl)-3-oxo-propionamide]	< 64 µg/mL
N[C@@H]1C[C@H](N)CN(c2nc(Nc3ccc(C(=O)CC(=O)Nc4ccc(F)c(F)c4)cc3)nc(N3C[C@@H](N)C[C@H]3CO)n2)C1 [3-{4-[4-((2S,4S)-4-Amino-2-hydroxymethyl-pyrrolidin-1-yl)-6-((3R,5S)-3,5-diamino-piperidin-1-yl)-[1,3,5]triazin-2-ylamino]-phenyl}-N-(3,4-difluoro-phenyl)-3-oxo-propionamide]	< 64 µg/mL
NC[C@@H]1C[C@H](CN)CN(c2nc(Nc3ccc(C(=O)CC(=O)Nc4ccccc4Cl)cc3)nc(N3C[C@H](N)C[C@H](N)C3)n2)C1 [3-{4-[4-((3R,5S)-3,5-Bis-(aminomethyl)-piperidin-1-yl)-6-((3R,5S)-3,5-diamino-piperidin-1-yl)-[1,3,5]triazin-2-ylamino]-phenyl}-N-(2-chloro-phenyl)-3-oxo-propionamide]	< 64 µg/mL
COc1nc(Nc2ccc(C(=O)CC(=O)Nc3ccc4c(c3)OC(F)(F)O4)cc2)nc(N2C[C@H](N)C[C@H](N)C2)n1 [3-{4-[4-((3R,5S)-3,5-Diamino-piperidin-1-yl)-6-methoxy-[1,3,5]triazin-2-ylamino]-phenyl}-N-(2,2-difluoro-benzo[1,3]dioxol-5-yl)-3-oxo-propionamide]	< 16 µg/mL
COc1nc(Nc2ccc(C(=O)CC(=O)Nc3ccc(F)c(F)c3)cc2)nc(N2C[C@H](N)C[C@H](N)C2)n1 [3-{4-[4-((3R,5S)-3,5-Diamino-piperidin-1-yl)-6-methoxy-[1,3,5]triazin-2-ylamino]-phenyl}-N-(3,4-difluoro-phenyl)-3-oxo-propionamide]	< 16 µg/mL
N[C@@H]1C[C@H](N)CN(c2nc(Nc3ccc(NC(=O)c4ccc(Cl)cc4)c(O)c3)nc(N3CCN(CC(=O)N4CCOCC4)CC3)n2)C1 [4-Chloro-N-(4-{4-((3S,5R)-3,5-diamino-piperidin-1-yl)-6-[4-(2-morpholin-4-yl-2-oxo-ethyl)-piperazin-1-yl]-[1,3,5]triazin-2-ylamino}-2-hydroxy-phenyl)-benzamide]	> 64 µg/mL
COc1nc(Nc2ccc(NC(=O)c3ccc(Cl)cc3)c(O)c2)nc(N2C[C@H](N)C[C@H](N)C2)n1 [4-Chloro-N-{4-[4-((3R,5S)-3,5-diamino-piperidin-1-yl)-6-methoxy-[1,3,5]triazin-2-ylamino]-2-hydroxy-phenyl}-benzamide]	< 16 µg/mL
N[C@@H]1C[C@H](N)CN(c2nc(Nc3ccc(NC(=O)c4ccc(Cl)cc4)c(O)c3)nc(N3CCN(c4ccncc4)CC3)n2)C1 [4-Chloro-N-{4-[4-((3S,5R)-3,5-diamino-piperidin-1-yl)-6-(4-pyridin-4-yl-piperazin-1-yl)-[1,3,5]triazin-2-ylamino]-2-hydroxy-phenyl}-benzamide]	< 64 µg/mL

Same assay, conditions: MIC in E. coli or S. aureus; two-fold serial dilutions 64 to 0.5 μg/ml in duplicate; 18 hours of incubation at 35° C.

Structure (SMILES)	Potency (MIC)
NC[C@@H]1C[C@@H](O)CN1c1nc(Nc2ccc(C(=O)CC(=O)Nc3ccc(SC(F)(F)F)cc3)cc2)nc(N2C[C@H](N)C[C@H](N)C2)n1 [3-{4-[4-((2S,4RE)-2-Aminomethyl-4-hydroxy-pyrrolidin-1-yl)-6-((3R,5S)-3,5-diamino-piperidin-1-yl)-[1,3,5]triazin-2-ylamino]-phenyl}-3-oxo-N-(4-trifluoromethylsulfanyl-phenyl)-propionamide]	++ (++ means MIC<16 μg/ml in E. coli or S. aureus)
NC[C@@H]1C[C@H](N)CN1c1nc(Nc2ccc(C(=O)CC(=O)Nc3ccc(F)c(F)c3)cc2)nc(N2C[C@H](N)C[C@H](N)C2)n1 [3-{4-[4-((2S,4S)-4-Amino-2-aminomethyl-pyrrolidin-1-yl)-6-((3R,5S)-3,5-diamino-piperidin-1-yl)-[1,3,5]triazin-2-ylamino]-phenyl}-N-(3,4-difluoro-phenyl)-3-oxco-propionamide]	+ (+ means MIC<64 μg/ml in E. coli or S. aureus)
